Experimental findings from patent publication US20040023295A1, “Methods and systems for analyzing complex biological systems” (priority 2001, published 2004) are described below.

Experiment [1] has as its system Arabidopsis thaliana. Nature of the experiment: Gene expression profiling of sprayed Arabidopsis (MOA1). In kind it is in vivo. Particulars: for No. of Lethal Genes Altered: regulated genes identified as essential genes in internal database.
In experiment [2] the test system is Arabidopsis thaliana plants. Nature of the experiment: Phenotypic analysis of herbicide-treated Arabidopsis plants (SOA1). In kind it is in vivo. Particulars: for characteristic symptoms (morphological phenotype): herbicide-treated Arabidopsis; for Dev. leafWidth: numeric values standardized to the average response for the mock treated tissues; for Dev. leafCurling / Dev. leafTwisting / Dev. matureLeafAnthocyanins / Dev. matureLeafChlorosis / Dev. matureLeafNecrosis / Dev. newLeafAnthocyanins / Dev. newLeafChlorosis / Dev. newLeafNecrosis / Dev. pointedLeaves: standardized to mock treated; for Dev. tMic: time for full range of symptoms at MIC, coded score; for Symptom Class: three-week-old Arabidopsis sprayed with herbicide, phenotype classes of FIG. 12.

Experiment [3] concerns Arabidopsis thaliana. Nature of the experiment: Biochemical (metabolite) profiling by LC-MS and GC-MS of sprayed Arabidopsis (MOA1). Particulars: for stress related (commonly regulated) metabolites: within one hour after spraying.
For experiment [4], the system named is Saccharomyces cerevisiae wild type strain BY4743. Nature of the experiment: Yeast azole drug experiment AF1: metabolite analysis (GC-MS, LC-MS). In kind it is cell-based.
[5] abbreviates: 1 hr, p < 0.5, arrays containing 22,000 Arabidopsis genes.
Where [6] appears, read: early time points (20 min, 1 hour).

Entries after “also recorded” stand apart in the source; their conditions may differ.

Consider `O=C(O)c1ccccc1C(=O)Nc1cccc2ccccc12` [Naptalam], for which, in the experiment with Arabidopsis thaliana [1] (setting [5]), the “Regulated Genes: Down” value is 47 and the “Regulated Genes: Up” value came to 50. Moreover, the “No. of Lethal Genes Altered” value in the experiment on Arabidopsis thaliana [1] is listed as 3.
On to `CCNc1nc(Cl)nc(NC(C)C)n1` [Atrazine], for which, in experiment [2], the “characteristic symptoms (morphological phenotype)” value was “rapid and widespread leaf necrosis”.
Still for that read-out and setting: the same measure for `CC(C)N1C(=O)c2ccccc2NS1(=O)=O` [Bentazon]: “rapid and widespread leaf necrosis”.
In the case of `CC(C)C1(C)N=C(c2ncccc2C(=O)O)NC1=O` (stereo not shown) [Imazapyr], the “characteristic symptoms (morphological phenotype)” value in experiment [2] is “anthocyanin accumulation in the older leaves accompanied by chlorosis of the newly emerging leaves”. Besides, the “stress related (commonly regulated) metabolites” value in the experiment on Arabidopsis thaliana [3] is “Only a few, if any”.
For `CNc1cnn(-c2cccc(C(F)(F)F)c2)c(=O)c1Cl` [Norflurazon], the “stress related (commonly regulated) metabolites” value in the experiment on Arabidopsis thaliana [3] was “Only a few, if any”.
On to `CCc1cnc(C2=NC(C)(C(C)C)C(=O)N2)c(C(=O)O)c1` (stereo not shown) [Imazethapyr], for which the “characteristic symptoms (morphological phenotype)” value in experiment [2] is recorded as “anthocyanin accumulation in the older leaves accompanied by chlorosis of the newly emerging leaves”.
For the molecule `COc1nc(C)nc(NC(=O)NS(=O)(=O)c2ccccc2Cl)n1` [Chlorsulfuron], the “characteristic symptoms (morphological phenotype)” value in experiment [2] is reported as “anthocyanin accumulation in the older leaves accompanied by chlorosis of the newly emerging leaves”. Also, the “No. of Lethal Genes Altered” value with Arabidopsis thaliana [1] was 8.
Take `COC(=O)NS(=O)(=O)c1ccc(N)cc1` [Asulam]: the “No. of Lethal Genes Altered” value in the experiment with Arabidopsis thaliana [1] is on record as 5.
Turning to `C[n+]1ccc(-c2cc[n+](C)cc2)cc1` [Paraquat], in experiment [2], the “characteristic symptoms (morphological phenotype)” value was “rapid and widespread leaf necrosis”; the “Dev. leafWidth” value was −1; the “Dev. leafCurling” value was found to be 2; the “Dev. leafTwisting” value was found to be 0. For the same molecule, in experiment [2], the “Dev. matureLeafAnthocyanins” value was 0, the “Dev. matureLeafChlorosis” value stood at 1, the “Dev. matureLeafNecrosis” value is listed as 4 and the “Dev. newLeafAnthocyanins” value was found to be 0. In experiment [2], the “Dev. newLeafChlorosis” value worked out at 1, the “Dev. newLeafNecrosis” value was 4, the “Dev. pointedLeaves” value was found to be 1 and the “Dev. tMic” value is listed as 2.
In the case of `CN(C)C(=O)Nc1ccc(Cl)c(Cl)c1` [Diuron], in experiment [2], the “characteristic symptoms (morphological phenotype)” value was “rapid and widespread leaf necrosis”; the “Dev. leafWidth” value is −2; the “Dev. leafCurling” value is reported as 1; the “Dev. leafTwisting” value came out at 0. In experiment [2], the “Dev. matureLeafAnthocyanins” value came to 0, the “Dev. matureLeafChlorosis” value amounted to 2, the “Dev. matureLeafNecrosis” value is reported as 4 and the “Dev. newLeafAnthocyanins” value is 0. Also, in experiment [2], the “Dev. newLeafChlorosis” value came out at 2, the “Dev. newLeafNecrosis” value worked out at 4, the “Dev. pointedLeaves” value is reported as 1 and the “Symptom Class” value is 7. The “Dev. tMic” value in experiment [2] was found to be 1.
For `CS(=O)(=O)c1cc(C(F)(F)F)ccc1C(=O)c1cnoc1C1CC1` [Isoxaflutole], the “alterations in the expression of genes involved in the homogentisate biosynthetic pathway” value in the experiment on Arabidopsis thaliana [1] (MOA1, 1 hr) is “not observed”. Moreover, the “No. of Lethal Genes Altered” value in the experiment on Arabidopsis thaliana [1] turned out to be 15. The “Alpha-tocopherol level relative to the control” value in the experiment on Arabidopsis thaliana [3] (early time points) is listed as “not significantly changed”. Also, in the experiment on Arabidopsis thaliana [3] (setting [6]), the “phenylalanine level relative to the control” value is listed as “up-regulated; also recorded: began to accumulate relative to the control” and the “tyrosine level relative to the control” value is given as “up-regulated; also recorded: began to accumulate relative to the control”.
As to `c1cc[n+]2c(c1)-c1cccc[n+]1CC2` [Diquat], in experiment [2], the “characteristic symptoms (morphological phenotype)” value was “rapid and widespread leaf necrosis”; the “Dev. leafWidth” value is reported as −2; the “Dev. leafCurling” value turned out to be 2; the “Dev. leafTwisting” value amounted to 0. In addition, in experiment [2], the “Dev. matureLeafAnthocyanins” value is on record as 0, the “Dev. matureLeafChlorosis” value is 1, the “Dev. matureLeafNecrosis” value came out at 4 and the “Dev. newLeafAnthocyanins” value was determined as 0. Further, in experiment [2], the “Dev. newLeafChlorosis” value worked out at 1, the “Dev. newLeafNecrosis” value came out at 4, the “Dev. pointedLeaves” value came to 1 and the “Symptom Class” value was 7. For the same molecule, the “Dev. tMic” value in experiment [2] is given as 2.
Consider `CSc1nnc(C(C)(C)C)c(=O)n1N` [Metribuzin], for which the “characteristic symptoms (morphological phenotype)” value in experiment [2] was “rapid and widespread leaf necrosis”.
Still for that read-out and setting: the same measure for `O=C(O)c1cc(Oc2ccc(C(F)(F)F)cc2Cl)ccc1[N+](=O)[O-]` [Acifluorfen]: “Necrotic leaf flecks”.
On the same count and under the same terms, the entry for `COC(=O)c1cc(Oc2ccc(Cl)cc2Cl)ccc1[N+](=O)[O-]` [Bifenox] is “Necrotic leaf flecks”.
Turning to `O=C(O)COc1ccc(Cl)cc1Cl` [2,4-D], in experiment [2], the “Dev. leafWidth” value was −1, the “Dev. leafCurling” value is 1, the “Dev. leafTwisting” value was 2 and the “Dev. matureLeafAnthocyanins” value worked out at 1. For the same molecule, in experiment [2], the “Dev. matureLeafChlorosis” value came out at 2, the “Dev. matureLeafNecrosis” value is 0, the “Dev. newLeafAnthocyanins” value is on record as 0 and the “Dev. newLeafChlorosis” value is 1. Also, in experiment [2], the “Dev. newLeafNecrosis” value was found to be 0, the “Dev. pointedLeaves” value turned out to be 0, the “Symptom Class” value stood at 5 and the “Dev. tMic” value came to 2.
Consider `OC(Cn1cncn1)(Cn1cncn1)c1ccc(F)cc1F` [Fluconazole], for which, in experiment [4] (GC), the “Fold Change campesterol” value worked out at 0, the “Fold Change desmosterol” value came to 0 and the “Fold Change octadecanoic acid” value turned out to be 0.082. In experiment [4] (nLC), the “Fold Change 4-methylcatechol” value came to 0, the “Fold Change 5hydroxyL-tryptophan” value was 0, the “Fold Change 6-benzylaminopurine” value was 0 and the “Fold Change NacetylD-glucosamine” value was 0. In experiment [4] (nLC), the “Fold Change NacetylL-ornithine” value is recorded as 0, the “Fold Change abscisic acid” value came to 0, the “Fold Change adenine” value was 0 and the “Fold Change adenosine” value came to 0. Also, in experiment [4] (nLC), the “Fold Change anthranilic acid” value is 0, the “Fold Change argininosuccinate” value came to 0, the “Fold Change benzoic acid” value came out at 0 and the “Fold Change catechol” value was found to be 0. In experiment [4] (nLC), the “Fold Change cinnamic acid” value is on record as 0, the “Fold Change citricanoic/itaconi” value was determined as 0, the “Fold Change citrulline” value is 0 and the “Fold Change coumaric acid” value stood at 0. Also, in experiment [4] (nLC), the “Fold Change cytosine” value amounted to 0, the “Fold Change diaminopimelic acid” value is on record as 0, the “Fold Change dihydrofolic acid” value is 0 and the “Fold Change estrone” value is given as 0. Moreover, in experiment [4] (nLC), the “Fold Change farnesol” value was found to be 0, the “Fold Change folic acid” value turned out to be 0, the “Fold Change gibberellic” value is on record as 0 and the “Fold Change guanine” value amounted to 0. Further, in experiment [4] (nLC), the “Fold Change histidine” value is reported as 0, the “Fold Change homogentisic/uric” value amounted to 0, the “Fold Change hydrocortisone” value is 0 and the “Fold Change indole3-pyruvic acid” value is reported as 0. In experiment [4] (nLC), the “Fold Change jasmonic acid” value is reported as 0, the “Fold Change kinetin” value stood at 0, the “Fold Change luteolin” value is 0 and the “Fold Change malonic acid” value worked out at 0. Moreover, in experiment [4] (nLC), the “Fold Change methionine” value stood at 0, the “Fold Change orotic acid” value is recorded as 0, the “Fold Change phenylpyruvic acid” value was determined as 0 and the “Fold Change phosphoenolpyruvate” value turned out to be 0. In experiment [4] (nLC), the “Fold Change pinitol” value is recorded as 0, the “Fold Change porphobilinogen” value is 0, the “Fold Change retinoic acid” value was found to be 0 and the “Fold Change salicylic/HObenzoic” value is given as 0. Also, in experiment [4] (nLC), the “Fold Change shikimic acid” value was 0, the “Fold Change sinapinic acid” value is 0, the “Fold Change thymine” value worked out at 0 and the “Fold Change urocanic acid” value was found to be 0. Besides, in experiment [4] (nLC), the “Fold Change xanthosine-DiH2O” value amounted to 0 and the “Fold Change zeatin” value turned out to be 0. Also, in experiment [4] (pLC), the “Fold Change 4-aminobenzoic acid” value is reported as 0, the “Fold Change 4-methylcatechol” value was 0, the “Fold Change 5hydroxyL-tryptophan” value is 0 and the “Fold Change 6benzylaminopurine” value was 0. Also, in experiment [4] (pLC), the “Fold Change NacetylD-glucosamine” value is listed as 0, the “Fold Change NacetylL-glutamate” value is on record as 0, the “Fold Change abscisic acid” value came to 0 and the “Fold Change adenosine” value is reported as 0. Also, in experiment [4] (pLC), the “Fold Change allantoic acid” value is listed as 0, the “Fold Change anthranilic acid” value is reported as 0, the “Fold Change argininosuccinate” value was 0 and the “Fold Change biotin” value came out at 0. In experiment [4] (pLC), the “Fold Change caffeine” value came out at 0, the “Fold Change citric acid TME” value came out at 0, the “Fold Change cytidine” value came to 0 and the “Fold Change cytosine” value came out at 0. Besides, in experiment [4] (pLC), the “Fold Change diaminopimelic acid” value is reported as 0, the “Fold Change dihydrofolic acid” value worked out at 0, the “Fold Change dipicolinic acid” value is 0 and the “Fold Change folic acid” value is 0. Moreover, in experiment [4] (pLC), the “Fold Change glucosamine” value is 0, the “Fold Change glucosamine6PO4” value was determined as 0, the “Fold Change histidine” value came out at 0 and the “Fold Change hydrocortisone” value was 0. In experiment [4] (pLC), the “Fold Change itaconic acid dimes” value is on record as 0, the “Fold Change kinetin” value was 0, the “Fold Change luteolin” value amounted to 0 and the “Fold Change niacinamide” value was found to be 0. Moreover, in experiment [4] (pLC), the “Fold Change nopaline” value was determined as 0, the “Fold Change phosphoenolpyruvate” value stood at 0, the “Fold Change progesterone” value was found to be 0 and the “Fold Change riboflavin” value is recorded as 0. In experiment [4] (pLC), the “Fold Change sugar-phosphate” value came out at 0, the “Fold Change thiamine” value is 0, the “Fold Change thymine” value worked out at 0 and the “Fold Change tryptophan” value is recorded as 0. Moreover, in experiment [4] (pLC), the “Fold Change uric acid” value worked out at 0, the “Fold Change urocanic acid” value was 0, the “Fold Change xanthosine (diH2O)” value is listed as 0 and the “Fold Change zeatin” value came to 0.
Regarding `CC[C@@H]([C@H](C)O)n1ncn(-c2ccc(N3CCN(c4ccc(OC[C@@H]5CO[C@@](Cn6cncn6)(c6ccc(F)cc6F)C5)cc4)CC3)cc2)c1=O` [Posaconazole], the “Fold Change: 4-aminobenzoic acid” value in experiment [4] (platform nLC) was 0.
